Laboratory results reported in patent US20260070945A1, “MACROCYCLIC IMMUNOMODULATORS” (Bristol-Myers Squibb Company, priority 2022, published 2026).
*1 amine or outer side, *2 acyl side, *3 side chain or, on linkers, in order; H or OH if unused. Where a SMILES comes first, the peptide text is derived from it. Bridges are numbered along the chain shown (N, C = ends). [ ]: non-standard residue; d: D form. The star is where a group is joined. ξ: configuration not given here. Phe(3-CF3) = N[C@@H](Cc1cccc(C(F)(F)F)c1)C(=O)O; Phe(4-CF3) = N[C@@H](Cc1ccc(C(F)(F)F)cc1)C(=O)O; Ala(morpholin-4-yl) = N[C@@H](CN1CCOCC1)C(=O)O; Phe(4-CONH2) = NC(=O)c1ccc(C[C@H](N)C(=O)O)cc1; Phe(4-COOH) = N[C@@H](Cc1ccc(C(=O)O)cc1)C(=O)O; Bip = N[C@@H](Cc1ccc(-c2ccccc2)cc1)C(=O)O; Phe(3-Cl) = N[C@@H](Cc1cccc(Cl)c1)C(=O)O; Phe(4-CN) = N#Cc1ccc(C[C@H](N)C(=O)O)cc1; Phe(3-Me) = Cc1cccc(C[C@H](N)C(=O)O)c1; γGlu = O=C(O)[C@H](CCC(=O)[*:2])N[*:1]; NH(CH2)12COOH = O=C(O)CCCCCCCCCCCCN*; Val(3-OH) = CC(C)(O)[C@H](N)C(=O)O; 4Pal = N[C@@H](Cc1ccncc1)C(=O)O; Cha = N[C@@H](CC1CCCCC1)C(=O)O; Cit = NC(=O)NCCC[C@H](N)C(=O)O; Thr(3ξ) = CC(O)[C@H](N)C(=O)O; 12Ado = NCCCCCCCCCCCC(=O)O; Carboxymethyl = O=C(O)C*; NMeA = CN[C@@H](C)C(=O)O; Orn = NCCC[C@H](N)C(=O)O; Aun = NCCCCCCCCCCC(=O)O; Dab = NCC[C@H](N)C(=O)O; AEEA = NCCOCCOCC(=O)O; Sar = CNCC(=O)O

Each molecule was assayed against T1, PD-1/PD-L1 interaction (PE-labeled human PD-L1-Ig binding to Jurkat cell line over-expressing human PD-1) (Homo sapiens, UniProt Q15116) (assay: Jurkat-PD-1 Cell Binding High-Content Screening Assay (CBA)). Settings: Jurkat-hPD-1 cells, PE-labeled PD-L1-Ig 20 nM final; read-out: Jurkat HPD1 PDL1 IC50.
T1 construct: expressed in transfected cells; host or cells: Jurkat
T1 sequence (Q15116 25-288): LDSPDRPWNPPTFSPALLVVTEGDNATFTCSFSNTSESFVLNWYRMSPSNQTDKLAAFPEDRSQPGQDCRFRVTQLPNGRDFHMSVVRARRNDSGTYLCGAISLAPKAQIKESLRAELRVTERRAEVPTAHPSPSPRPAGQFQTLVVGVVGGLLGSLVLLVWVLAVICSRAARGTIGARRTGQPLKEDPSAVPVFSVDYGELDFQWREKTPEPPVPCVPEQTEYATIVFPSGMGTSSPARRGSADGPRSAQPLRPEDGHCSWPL
Outline: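 Jurkat cells overexpressing human PD-1 (8×10^3/well, DMEM + 10% FCS) preincubated with compound 2 h at 37 °C, then PE-labelled human PD-L1-Ig (20 nM final) for 1 h. Cells fixed in paraformaldehyde with Hoechst 33342; bound PD-L1 quantified by high-content imaging.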

IC50 [nM]	SMILES
14.7	Cc1cccc(C[C@@H]2NC(=O)[C@H](CC(=O)O)NC(=O)[C@H](Cc3ccc(OCC(=O)O)cc3)NC(=O)[C@H](Cc3ccc(C#N)cc3)NC(=O)CSC[C@@H](C(=O)N[C@@H](CCN)C(=O)NCCCCCCCCCCC(=O)O)NC(=O)[C@H](CO)NC(=O)[C@H](C(C)(C)O)NC(=O)[C@H](CC3CCCCC3)NC(=O)[C@H](CCN)NC(=O)[C@@H](CC(C)C)NC(=O)[C@H](C)N(C)C(=O)[C@H](Cc3ccc(OCC(=O)O)cc3)NC(=O)[C@H](Cc3ccc(-c4ccccc4)cc3)NC(=O)[C@H](Cc3ccc(OCC(=O)O)cc3)NC2=O)c1 [Example 1288] ({CH2CO}-[Phe(4-CN)]Y(Carboxymethyl)D[Phe(3-Me)]Y(Carboxymethyl)[Bip]Y(Carboxymethyl)[NMeA][dL][Dab][Cha][Val(3-OH)]SC[Dab][Aun]-OH; thioether N-14)
13.2	CC(C)C[C@@H]1NC(=O)[C@H](Cc2c[nH]c3ccccc23)NC(=O)[C@H](CC(=O)O)NC(=O)[C@H](Cc2ccncc2)NC(=O)[C@H](Cc2ccc(OCC(=O)O)cc2)NC(=O)CSC[C@@H](C(=O)N[C@@H](CCCN)C(=O)NCCOCCOCC(=O)NCCCCCCCCCCCC(=O)O)NC(=O)[C@H](CO)NC(=O)[C@H](C(C)C)NC(=O)[C@H](CC2CCCCC2)NC(=O)[C@H](CCN)NC(=O)[C@@H](CC(C)C)NC(=O)[C@H](C)N(C)C(=O)[C@H](C(C)C)NC(=O)[C@H](Cc2ccc(-c3ccccc3)cc2)NC1=O [Example 2141] ({CH2CO}-Y(Carboxymethyl)[4Pal]DWL[Bip]V[NMeA][dL][Dab][Cha]VSC[Orn][AEEA][12Ado]-OH; thioether N-14)
22.7	COc1ccc(C[C@@H]2NC(=O)[C@H](Cc3cccc(C)c3)NC(=O)[C@H](CC(=O)O)NC(=O)[C@H](Cc3ccc(C(=O)O)cc3)NC(=O)[C@H](CCN)NC(=O)CSC[C@@H](C(=O)N[C@@H](CCN)C(=O)NCCCCCCCCCCC(=O)O)NC(=O)[C@H](CO)NC(=O)[C@H](C(C)(C)O)NC(=O)[C@H](CC3CCCCC3)NC(=O)[C@H](CCN)NC(=O)[C@@H](CC(C)C)NC(=O)[C@H](C)N(C)C(=O)[C@H](Cc3ccc(OCC(=O)O)cc3)NC(=O)[C@H](Cc3ccc(-c4ccccc4)cc3)NC2=O)cc1 [Example 1291] ({CH2CO}-[Dab][Phe(4-COOH)]D[Phe(3-Me)]Y(Me)[Bip]Y(Carboxymethyl)[NMeA][dL][Dab][Cha][Val(3-OH)]SC[Dab][Aun]-OH; thioether N-14)
33.3	Cc1cccc(C[C@@H]2NC(=O)[C@H](CC(=O)O)NC(=O)[C@H](Cc3ccc(C(=O)O)cc3)NC(=O)[C@H](CCN)NC(=O)CSC[C@@H](C(=O)N[C@@H](CCN)C(=O)NCCCCCCCCCCC(=O)O)NC(=O)[C@H](CO)NC(=O)[C@H](C(C)(C)O)NC(=O)[C@H](CC3CCCCC3)NC(=O)[C@H](CCN)NC(=O)[C@@H](CC(C)C)NC(=O)[C@H](C)N(C)C(=O)[C@H](Cc3ccc(OCC(=O)O)cc3)NC(=O)[C@H](Cc3ccc(-c4ccccc4)cc3)NC(=O)[C@H](Cc3cccc(Cl)c3)NC2=O)c1 [Example 1297] ({CH2CO}-[Dab][Phe(4-COOH)]D[Phe(3-Me)][Phe(3-Cl)][Bip]Y(Carboxymethyl)[NMeA][dL][Dab][Cha][Val(3-OH)]SC[Dab][Aun]-OH; thioether N-14)
231	CC(=O)NCCCC[C@@H]1NC(=O)[C@H](C(C)C)NC(=O)[C@H](CC2CCCCC2)NC(=O)[C@H](CCN)NC(=O)[C@@H](CC(C)C)NC(=O)[C@H](C)N(C)C(=O)[C@H](Cc2ccc(O)cc2)NC(=O)[C@H](Cc2ccc(-c3ccccc3)cc2)NC(=O)[C@H](C(C)C)NC(=O)[C@H](Cc2cccc(C)c2)NC(=O)[C@H](CC(=O)O)NC(=O)[C@H](Cc2ccc(OCC(=O)O)cc2)NC(=O)[C@H](Cc2cnc[nH]2)NC(=O)CSC[C@@H](C(=O)N(C)CC(=O)NCCCCCCCCCCC(=O)O)NC1=O [Example 2272] ({CH2CO}-HY(Carboxymethyl)D[Phe(3-Me)]V[Bip]Y[NMeA][dL][Dab][Cha]VK(Ac)C[Sar][Aun]-OH; thioether N-14)
48.8	CC(C)C[C@H]1NC(=O)[C@H](C)N(C)C(=O)[C@H](CCCNC(N)=O)NC(=O)[C@H](Cc2ccc(-c3ccccc3)cc2)NC(=O)[C@H](Cc2ccc(C(=O)O)cc2)NC(=O)[C@H](Cc2cccc(C(F)(F)F)c2)NC(=O)[C@H](CC(=O)O)NC(=O)[C@H](Cc2ccc(OCC(=O)O)cc2)NC(=O)[C@H](CN2CCOCC2)NC(=O)CSC[C@@H](C(=O)N[C@@H](CCN)C(=O)NCCOCCOCC(=O)N[C@@H](CCC(=O)NCCOCCOCC(=O)NCCCCCCCCCCCCC(=O)O)C(=O)O)NC(=O)[C@H](CC(=O)O)NC(=O)[C@H](C(C)(C)O)NC(=O)[C@H](CC2CCCCC2)NC(=O)[C@H](CCN)NC1=O [Example 1175] ({CH2CO}-[Ala(morpholin-4-yl)]Y(Carboxymethyl)D[Phe(3-CF3)][Phe(4-COOH)][Bip][Cit][NMeA][dL][Dab][Cha][Val(3-OH)]DC[Dab][AEEA][γGlu][AEEA]-{NH(CH2)12COOH}; thioether N-14)

Same assay, conditions: PE-labeled PD-L1-Ig 20 nM final, Jurkat-hPD-1 cells; read-out: Jurkat HPD1 PDL1 IC50

IC50 [nM]	SMILES
217	CC(C)C[C@H]1NC(=O)[C@H](C)N(C)C(=O)[C@H](Cc2ccc(C(N)=O)cc2)NC(=O)[C@H](Cc2ccc(-c3ccccc3)cc2)NC(=O)[C@H](Cc2ccc(C(N)=O)cc2)NC(=O)[C@H](Cc2c[nH]c3ccccc23)NC(=O)[C@H](CC(=O)O)NC(=O)[C@H](Cc2ccc(OCC(=O)O)cc2)NC(=O)[C@H](C(C)O)NC(=O)CSC[C@@H](C(=O)N[C@@H](CCN)C(=O)NCCCCCCCCCCC(=O)O)NC(=O)[C@H](CO)NC(=O)[C@H](Cc2cnc[nH]2)NC(=O)[C@H](CC2CCCCC2)NC(=O)[C@H](CCN)NC1=O (stereo partly drawn) [Example 2429] ({CH2CO}-[Thr(3ξ)]Y(Carboxymethyl)DW[Phe(4-CONH2)][Bip][Phe(4-CONH2)][NMeA][dL][Dab][Cha]HSC[Dab][Aun]-OH; thioether N-14)
9	CC(=O)NCCCC[C@@H]1NC(=O)[C@H](C(C)(C)O)NC(=O)[C@H](CC2CCCCC2)NC(=O)[C@H](CCN)NC(=O)[C@@H](CC(C)C)NC(=O)[C@H](C)N(C)C(=O)[C@H](CCC(N)=O)NC(=O)[C@H](Cc2ccc(-c3ccccc3)cc2)NC(=O)[C@H](Cc2ccc(C(F)(F)F)cc2)NC(=O)[C@H](Cc2cccc(C)c2)NC(=O)[C@H](CC(=O)O)NC(=O)[C@H](Cc2ccc(OCC(=O)O)cc2)NC(=O)[C@H](Cc2ccc(OCC(=O)O)cc2)NC(=O)CSC[C@@H](C(=O)N[C@@H](CCN)C(=O)NCCOCCOCC(=O)NCCCCCCCCCCC(=O)O)NC1=O [Example 2593] ({CH2CO}-Y(Carboxymethyl)Y(Carboxymethyl)D[Phe(3-Me)][Phe(4-CF3)][Bip]Q[NMeA][dL][Dab][Cha][Val(3-OH)]K(Ac)C[Dab][AEEA][Aun]-OH; thioether N-14)
4.5	CC(C)C[C@H]1NC(=O)[C@H](C)N(C)C(=O)[C@H](Cc2ccc(C(=O)O)cc2)NC(=O)[C@H](Cc2ccc(-c3ccccc3)cc2)NC(=O)[C@H](Cc2ccc(C(=O)O)cc2)NC(=O)[C@H](Cc2cccc(C(F)(F)F)c2)NC(=O)[C@H](CC(=O)O)NC(=O)[C@H](Cc2ccc(C(=O)O)cc2)NC(=O)[C@H](C(C)O)NC(=O)CSC[C@@H](C(=O)N[C@@H](CCN)C(=O)NCCCCCCCCCCC(=O)O)NC(=O)[C@H](C(C)O)NC(=O)[C@H](C(C)C)NC(=O)[C@H](CC2CCCCC2)NC(=O)[C@H](CCN)NC1=O (stereo partly drawn) [Example 2566] ({CH2CO}-[Thr(3ξ)][Phe(4-COOH)]D[Phe(3-CF3)][Phe(4-COOH)][Bip][Phe(4-COOH)][NMeA][dL][Dab][Cha]V[Thr(3ξ)]C[Dab][Aun]-OH; thioether N-14)
